Results as given in PMC5733478, “A Non-imaging High Throughput Approach to Chemical Library Screening at the Unmodified Adenosine-A3 Receptor in Living Cells” (Frontiers in Pharmacology, 2017).
Where a name gives a salt, the structure may show the parent alone.

target: T1, human A3AR (Homo sapiens, UniProt P0DMS8); assay: LOPAC library primary screen: single concentration (10 μM) inhibition of 25 nM CA200645 binding, PHERAstar FS; settings: not given
T1 construct: expressed in transfected cells
T1 sequence (P0DMS8 1-318): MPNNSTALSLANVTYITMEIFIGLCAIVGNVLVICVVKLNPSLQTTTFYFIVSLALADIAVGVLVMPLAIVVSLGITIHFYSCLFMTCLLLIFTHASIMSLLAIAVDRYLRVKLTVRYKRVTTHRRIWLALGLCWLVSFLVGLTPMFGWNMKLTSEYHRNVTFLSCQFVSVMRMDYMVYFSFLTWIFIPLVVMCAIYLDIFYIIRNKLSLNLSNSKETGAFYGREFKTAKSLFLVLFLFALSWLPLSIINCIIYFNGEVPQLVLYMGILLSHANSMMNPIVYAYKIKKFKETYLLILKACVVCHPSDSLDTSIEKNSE

Row | SMILES | % 25 nM CA200645 binding
1 | CNC(=O)c1cc2c(cn1)[nH]c1ccccc12 [N-Methyl-beta-carboline-3-carboxamide] | 84.9 ± 8.4%
2 | CNCCc1ccc(O)c(O)c1.Cl [N-Methyldopamine hydrochloride] | 96.1 ± 15.9%
3 | CNCCc1cnc(CCC(c2ccccc2)c2ccccc2)[nH]1.O=C(O)C(=O)O.O=C(O)C(=O)O [N-Methylhistaprodifen dioxalate salt] | 99.4 ± 7.3%
4 | CCCCCCCC/C=C\CCCCCCCC(=O)NCCc1ccc(O)c(O)c1 [N-Oleoyldopamine] | 53.5 ± 8.3%
5 | CCCCCCCC/C=C\CCCCCCCC(=O)NCCO [N-Oleoylethanolamine] | 98.2 ± 10.8%
6 | O=C(O)c1ccccc1Nc1ccccc1 [N-Phenylanthranilic acid] | 95.2 ± 6.4%
7 | O=C(O)CCC(=O)N1CCC[C@H]1C(=O)O [N-Succinyl-L-proline] | 81.8 ± 11.2%
8 | NC(=O)C1=CN([C@@H]2O[C@H](COP(=O)([O-])OP(=O)([O-])OC[C@H]3O[C@@H](n4cnc5c(N)ncnc54)[C@H](OP(=O)([O-])[O-])[C@@H]3O)[C@@H](O)[C@H]2O)C=CC1.[Na+].[Na+].[Na+].[Na+] [NADPH tetrasodium] | 112.0 ± 13.1%
9 | Br.COc1ccccc1N1CCN(CCCCN2C(=O)c3ccccc3C2=O)CC1 [NAN-190 hydrobromide] | 91.1 ± 29.0%
10 | CCCN(CC1CC1)c1nc(C)nc(Nc2c(Cl)cc(Cl)cc2Cl)c1Cl [NBI 27914] | 89.7 ± 7.0%
11 | NS(=O)(=O)c1cccc2c1c([N+](=O)[O-])cc1nc([O-])c([O-])nc12.[Na+].[Na+] [NBQX disodium] | 94.5 ± 3.8%
12 | O=C(Nc1cccc(C(=O)Nc2ccc(S(=O)(=O)O)c3cc(S(=O)(=O)O)cc(S(=O)(=O)O)c23)c1)Nc1cccc(C(=O)Nc2ccc(S(=O)(=O)O)c3cc(S(=O)(=O)O)cc(S(=O)(=O)O)c23)c1 [NF 023] | 83.8 ± 25.8%
13 | CC(C)[C@H]1c2ccc(F)cc2CC[C@@]1(CCN(C)CCCc1nc2ccccc2[nH]1)OC(=O)C1CC1 [NNC 55-0396] | 109.8 ± 31.5%
14 | Cl.c1ccc2c(c1)CCC[C@H]2Nc1nc2ccccc2[nH]1 [NS8593 hydrochloride] | 91.2 ± 11.5%
15 | O=c1onc2n1-c1cc(Br)ccc1OC2 [NS 2028] | 100.2 ± 8.6%
16 | O=c1[nH]c2cc(C(F)(F)F)ccc2n1-c1cc(C(F)(F)F)ccc1O [NS-1619] | 94.9 ± 11.8%
17 | O=C1C(SCCO)=C(SCCO)C(=O)c2ccccc21 [NSC 95397] | 96.3 ± 15.0%
18 | Nc1nc(OCC2CCCCC2)c2[nH]cnc2n1 [NU2058] | 53.9 ± 7.1%
19 | Nc1nc(N)c(N=O)c(OCC2CCCCC2)n1 [NU6027] | 80.6 ± 9.9%
20 | CN(C)C(N)=NCCC[C@H](N)C(=O)O.Cl [N^G,N^G-Dimethylarginine hydrochloride] | 101.2 ± 10.7%
21 | COc1ccccc1N1CCN(CC(O)COc2cccc3ccccc23)CC1.Cl.Cl (centres unmarked) [Naftopidil dihydrochloride] | 98.6 ± 14.2%
22 | CCn1cc(C(=O)[O-])c(=O)c2ccc(C)nc21.[Na+] [Nalidixic acid sodium] | 106.1 ± 13.7%

Row | SMILES | % 25 nM CA200645 binding
23 | C=CCN1CC[C@]23c4c5ccc(O)c4O[C@H]2C(=O)CC[C@@]3(O)[C@H]1C5 [Naloxone hydrochloride] | 114.3 ± 14.2%
24 | Oc1ccc2c3c1O[C@H]1c4oc5ccccc5c4C[C@@]4(O)[C@@H](C2)N(CC2CC2)CC[C@]314 [Naltriben methanesulfonate] | 106.9 ± 8.0%
25 | Oc1ccc2c3c1O[C@H]1c4[nH]c5ccccc5c4C[C@@]4(O)[C@@H](C2)N(CC2CC2)CC[C@]314 [Naltrindole hydrochloride] | 111.0 ± 9.1%
26 | c1ccc2c(CC3=NCCN3)cccc2c1 [Naphazoline hydrochloride] | 105.3 ± 13.5%
27 | Cc1cccc(C)c1NC(=O)CN1CCCC1=O [Nefiracetam] | 88.8 ± 23.8%
28 | CS(=O)(=O)O.Cc1c(O)cccc1C(=O)N[C@@H](CSc1ccccc1)[C@H](O)CN1C[C@H]2CCCC[C@H]2C[C@H]1C(=O)NC(C)(C)C.O [Nelfinavir mesylate hydrate] | 77.3 ± 17.3%
29 | CN(C)C(=O)Oc1cccc([N+](C)(C)C)c1 [Neostigmine bromide] | 100.2 ± 23.4%
30 | O=C(CCNNC(=O)c1ccncc1)NCc1ccccc1 [Nialamide] | 96.8 ± 7.4%
31 | O=C(Nc1ccc([N+](=O)[O-])cc1Cl)c1cc(Cl)ccc1O [Niclosamide] | 101.6 ± 22.5%
32 | O=C(O)c1cccnc1Nc1cccc(C(F)(F)F)c1 [Niflumic acid] | 113.3 ± 19.3%
33 | CC1(C)NC(=O)N(c2ccc([N+](=O)[O-])c(C(F)(F)F)c2)C1=O [Nilutamide] | 98.7 ± 10.0%
34 | CS(=O)(=O)Nc1ccc([N+](=O)[O-])cc1Oc1ccccc1 [Nimesulide] | 114.0 ± 22.1%
35 | Cc1ncc(CNC(=O)N(CCCl)N=O)c(N)n1 [Nimustine hydrochloride] | 95.2 ± 13.6%
36 | CNCCC(Oc1ccccc1OC)c1ccccc1 (centres unmarked) [Nisoxetine hydrochloride] | 97.3 ± 6.5%
37 | CCOC(=O)C1=C(C)NC(C)=C(C(=O)OC)C1c1cccc([N+](=O)[O-])c1 (centres unmarked) [Nitrendipine] | 96.1 ± 17.4%
38 | COC(=O)Nc1nc2ccc(C(=O)c3cccs3)cc2[nH]1 [Nocodazole] | 79.0 ± 5.7%
39 | CN1Cc2c(N)cccc2C(c2ccccc2)C1 (centres unmarked) [Nomifensine maleate] | 98.5 ± 14.7%
40 | O=C1OC(=O)[C@H]2[C@@H]1[C@@H]1CC[C@H]2O1 [Norcantharidin] | 108.5 ± 19.2%
41 | CNCCC=C1c2ccccc2CCc2ccccc21 [Nortriptyline hydrochloride] | 106.1 ± 17.3%
42 | COc1ccc2c(c1OC)C(=O)O[C@@H]2[C@H]1c2c(cc3c(c2OC)OCO3)CCN1C.Cl [Noscapine hydrchloride] | 114.6 ± 20.4%
43 | Nc1nc(OCc2ccccc2)c2nc[nH]c2n1 [O6-benzylguanine] | 65.0 ± 6.0%
44 | COc1ccc2[nH]cc(CCN)c2c1.Cl [O-Methylserotonin hydrochloride] | 107.2 ± 4.7%

Row | SMILES | % 25 nM CA200645 binding
45 | N[C@@H](COP(=O)(O)O)C(=O)O [O-Phospho-L-serine] | 93.4 ± 14.4%
46 | O=c1onc2cnc3ccccc3n12 [ODQ] | 93.0 ± 5.7%
47 | CC1COc2c(N3CCN(C)CC3)c(F)cc3c(=O)c(C(=O)O)cn1c23 (centres unmarked) [Ofloxacin] | 93.4 ± 20.0%
48 | CCCCCCCC/C=C\CCCCCCCC(=O)O [Oleic Acid] | 98.9 ± 11.8%
49 | Cn1cnc2c(NCc3ccccc3)nc(NCCO)nc21 [Olomoucine] | 97.0 ± 10.1%
50 | Cc1[nH]c(=O)c(C#N)cc1-c1ccc2nccn2c1.Cl [Olprinone hydrochloride] | 100.7 ± 4.5%
51 | CCCCCCCC/C=C\CCCCCCCC(=O)NCc1ccc(O)c(OC)c1 [Olvanil] | 76.7 ± 2.8%
52 | OCCN1CCN(CCCN2c3ccccc3C=Cc3ccccc32)CC1 [Opipramol dihydrochloride] | 100.5 ± 7.4%
53 | CN(CC[C@@H](Oc1ccc(C(F)(F)F)cc1)c1ccccc1)CC(=O)[O-].[Li+] [Org 24598 lithium salt] | 94.3 ± 5.8%
54 | C[C@@H]1O[C@@H](O[C@H]2C[C@@H](O)[C@]3(CO)[C@H]4[C@H](O)C[C@]5(C)[C@@H](C6=CC(=O)OC6)CC[C@]5(O)[C@@H]4CC[C@]3(O)C2)[C@H](O)[C@H](O)[C@H]1O [Ouabain] | 102.0 ± 3.5%
55 | O=C(O)CCc1nc(-c2ccccc2)c(-c2ccccc2)o1 [Oxaprozin] | 97.6 ± 6.3%
56 | NC(=O)CN1CC(O)CC1=O (centres unmarked) [Oxiracetam] | 97.9 ± 12.4%
57 | CCn1cc(C(=O)O)c(=O)c2cc3c(cc21)OCO3 [Oxolinic acid] | 101.1 ± 12.4%
58 | C[N+](C)(C)CC#CCN1CCCC1=O [Oxotremorine methiodide] | 101.3 ± 18.6%
59 | O=C(O)/C=C/C(=O)O.O=C(O)/C=C/C(=O)O.O=C(O)/C=C/C(=O)O.O=C1CCCN1CC#CCN1CCCC1.O=C1CCCN1CC#CCN1CCCC1 [Oxotremorine sesquifumarate salt] | 101.9 ± 13.3%
60 | CCN(CC)CC#CCOC(=O)C(O)(c1ccccc1)C1CCCCC1 (centres unmarked) [Oxybutynin Chloride] | 101.0 ± 12.8%
61 | C=CCc1cccc(/C=N/NC(=O)CN2CCN(Cc3ccccc3)CC2)c1O [PAC-1] | 105.3 ± 4.5%
62 | Nc1ccc(CCN2CCN(c3cccc(C(F)(F)F)c3)CC2)cc1 [PAPP] | 95.6 ± 9.9%
63 | COc1cccc(-c2cc(=O)c3ccccc3o2)c1N [PD 98,059] | 80.7 ± 2.6%
64 | Cc1cccc(C(=O)NCN2CCN(c3ccccc3C#N)CC2)c1.O=C(O)/C=C\C(=O)O [PD 168,077 maleate] | 92.4 ± 5.3%
65 | COc1ccc(C2(O)OC(=O)C(c3ccc4c(c3)OCO4)=C2Cc2cc(OC)c(OC)c(OC)c2)cc1 (centres unmarked) [PD-156707] | 71.9 ± 8.4%

same assay, conditions: compounds tested at 10 µM; % of control wells (1% DMSO and 25 nM CA200645); whole live cells expressing the A3AR; mean ± SD, three experiments in duplicate

Row | SMILES | % 25 nM CA200645 binding
66 | [H]/N=C(/NC)NCCC[C@H](N)C(=O)O [NG-Monomethyl-L-arginine acetate] | 112.2 ± 7.1%
67 | O=C1CC[C@@]2(O)[C@H]3Cc4ccc(O)c5c4[C@@]2(CCN3CC2CC2)[C@H]1O5 [Naltrexone hydrochloride] | 102.6 ± 6.5%
68 | CNS(=O)(=O)CCc1ccc2[nH]cc(C3CCN(C)CC3)c2c1 [Naratriptan hydrochloride] | 102.9 ± 17.6%
